Counter-ions that a name gives are not always drawn.
System: MTT (mouse pheochromocytoma)
Experiment: IC50 of cell viability (ATP content)
Conditions: (24 or 48 h)
Summary of the method: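 MTT mouse pheochromocytoma cells, cultured overnight at 37°C, 5% CO2 in DMEM with 5% FBS and 1% horse serum, were exposed in white 1536-well plates to library compounds in DMSO at final 0.5 nM to 46 µM (8 concentrations) for 24 or 48 hrs. CellTiter-Glo luminescence was normalised to positive-control (100%) and DMSO (0%) wells. A four-parameter logistic fit gave the IC50.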

Compound	IC50 of cell viability [µM]
C[C@]12CCC(=O)C=C1CC[C@@H]1[C@@H]2[C@@H](O)C[C@@]2(C)[C@H]1CC[C@]2(O)C(=O)COP(=O)([O-])[O-] [HYDROCORTISONE SODIUM PHOSPHATE]	> 46
CCCCC(=O)O[C@@]1(CCC2C3CC\C4=C\C(=O)CCC4(C)C3C(O)CC12C)C(=O)CO (stereo partly drawn) [HYDROCORTISONE VALERATE]	> 46
C[C@]\12CCC(=O)\C=C1CC[C@H]3[C@@H]4CC[C@](O)(C(=O)CO)[C@@]4(C)C[C@H](O)[C@H]23 [HYDROCORTISONE]	> 46
Br.CC(N)Cc1ccc(O)cc1 (stereo not drawn) [HYDROXYAMPHETAMINE HYDROBROMIDE]	> 46
CCN(CCO)CCCC(C)Nc1ccnc2cc(Cl)ccc12 (stereo not drawn) [HYDROXYCHLOROQUINE SULFATE]	> 46
CC(CC=O)CCCC(C)(C)O (stereo not drawn) [HYDROXYCITRONELLAL]	> 46
N=C(N)c1ccc(/C=C/c2ccc(C(=N)N)cc2O)cc1 [HYDROXYSTILBAMIDINE ISETHIONATE]	> 46
Nc1c2c(nc3ccccc13)CCCC2O (stereo not drawn) [HYDROXYTACRINE]	> 46
Cc1cccc(C(=O)O)c1O [HYDROXYTOLUIC ACID]	> 46
NC(=O)NO [HYDROXYUREA]	> 46
CNC1CC(N)[C@H](O)[C@@H](O[C@@H]2OC(CO)C3OC4(OC(C(N)CO)C(O)C(O)C4O)O[C@@H]3[C@H]2O)C1O (stereo partly drawn) [HYGROMYCIN B]	> 46
O=C1N\C=N/C2=C1[NH]C=N2 [HYPOXANTHINE]	> 46
CC1(C)O[C@H]2C[C@@H]3[C@H]4CC\C5=C\C(=O)CC[C@@]5(C)[C@]4(F)[C@@H](O)C[C@]3(C)[C@]2(O1)C(=O)CCl [Halcinonide]	> 46
CCCCN(CCCC)CC[C@H](O)c1cc2c(Cl)cc(Cl)cc2c2cc(C(F)(F)F)ccc12 [Halofantrine hydrochloride]	> 46
C[C@@H]1CC2[C@@H]3C[C@H](F)C4=CC(=O)C(Cl)=C[C@]4(C)[C@@]3(F)[C@H](O)C[C@]2(C)[C@@]1(O)C(=O)CO (stereo partly drawn) [Halometasona]	> 46
FC(F)(F)C(Cl)Br (stereo not drawn) [Halothane]	> 46
Cc1c(Cl)c(=O)oc2cc(OP(=O)(OCCCl)OCCCl)ccc12 [Haloxon]	> 46
C[C@H]1CC[C@]2(OC1)O[C@@H]1C[C@@H]3[C@H]4CC[C@H]5C[C@@H](O)CC[C@]5(C)[C@@H]4CC(=O)[C@@]3(C)[C@H]1[C@@H]2C [Hecogenin]	> 46
COc1ccc([C@@H]2CC(=O)c3c(O)cc(O[C@@H]4O[C@@H](CO[C@@H]5O[C@@H](C)[C@@H](O)[C@@H](O)[C@H]5O)[C@@H](O)[C@@H](O)[C@H]4O)cc3O2)cc1O [Hesperidin]	> 46
CCCCCCCCCCCCCCCCN [Hetaflur]	> 46
CCCCCCCCCCCCCCCC(=O)OC(C)C [Hexadecanoic acid, 1-methylethyl ester]	> 46
CCCCCCCCCCCCCCCC(=O)O [Hexadecanoic acid]	> 46
C[N+](C)(CCCCCC[N+](C)(C)C1c2ccccc2-c2ccccc21)C1c2ccccc2-c2ccccc21 [Hexafluorenium dibromide]	> 46
CCCCCC(N)=O [Hexanamide]	> 46

Compound	IC50 of cell viability [µM]
CC[C@H](c1ccc(O)cc1)[C@@H](CC)c1ccc(O)cc1 [Hexestrol]	> 46
CCCC[C@H](CC)CN1CN(C[C@@H](CC)CCCC)CC(C)(N)C1 [Hexetidine]	> 46
CN1C(=O)NC(=O)C(C)(C2=CCCCC2)C1=O (stereo not drawn) [Hexobarbital]	> 46
C[N+]1(C)CCN(C[C@@](O)(c2ccccc2)C2CCCCC2)CC1 [Hexocyclium methosulfate]	> 46
C[C@@H](CNC1CCCCC1)OC(=O)c1ccccc1 [Hexylcaine hydrochloride]	> 46
CC(=O)[C@@]1(O)CC[C@H]2[C@@H]3CC\C4=C\C(=O)CC[C@]4(C)[C@H]3CC[C@]12C [Hidroxiprogesterona]	> 46
CC1CC(OC(=O)c2ccccc2O)CC(C)(C)C1 (stereo not drawn) [Homosalate]	> 46
NNc1nncc2ccccc12 [Hydralazine hydrochloride]	> 46
C[C@]\12CCC(=O)\C=C1CC[C@H]3[C@@H]4CC[C@](O)(C(=O)COC(=O)CCC(O)=O)[C@@]4(C)C[C@H](O)[C@H]23 [Hydrocortisone 21-hemisuccinate sodium salt]	> 46
CC(=O)OCC(=O)C1(O)CCC2C3CCC/4=C/C(=O)CCC4(C)C3C(O)CC12C (stereo not drawn) [Hydrocortisone acetate]	> 46
COc1c2c(cc3c1OCO3)CCN(C)C2 [Hydrocotarnine hydrobromide]	> 46
N[S+](=O)([O-])c1cc2c(cc1C(F)(F)F)NCN[S+]2(=O)[O-] [Hydroflumethiazide]	> 46
Oc1ccc(O)cc1 [Hydroquinone]	> 46
O.O.O=S([O-])CO.[Na+] [Hydroxymethanesulfinic acid monosodium salt dihydrate]	> 46
CN[C@H]1C[C@@H](N)[C@H](O)[C@@H](O[C@@H]2O[C@H](CO)[C@H](O)[C@@H]3O[C@]4(O[C@@H]23)O[C@H]([C@@H](N)CO)[C@H](O)[C@@H](O)[C@H]4O)[C@@H]1O [Hygromycin B]	> 46
C\C1=C\C(=O)OC2=C1C=CC(=C2)O [Hymecromone]	> 46
CCCCCN(C)CC[C@@](O)(P(=O)([O-])O)P(=O)(O)O [IBANDRONATE SODIUM]	> 46
CC(=O)[C@]1(O)Cc2c(O)c3c(c(O)c2[C@@H](O[C@H]2C[C@H](N)[C@H](O)[C@H](C)O2)C1)C(=O)c1ccccc1C3=O [IDARUBICIN HYDROCHLORIDE]	> 46
C1C\N=C(/N1)C2COC3=C(O2)C=CC=C3 (stereo not drawn) [IDAZOXAN]	> 46
CC(C(O)c1ccc(O)cc1)N1CCC(Cc2ccccc2)CC1 (stereo not drawn) [IFENPRODIL]	> 46
CNC(=O)[C@H](Cc1c[nH]c2ccccc12)NC(=O)[C@@H](CC(=O)NO)CC(C)C [ILOMASTATUM]	> 46
Cc1ccc(NC(=O)c2ccc(CN3CCN(C)CC3)cc2)cc1Nc1nccc(-c2cccnc2)n1 [IMATINIB MESYLATE]	> 46
NC1=NC(=O)N2CC12 (stereo not drawn) [IMEXON]	> 46
CCOC(=O)[C@H](CCc1ccccc1)N[C@@H](C)C(=O)N1C(=O)N(C)C[C@H]1C(=O)O [IMIDAPRIL HYDROCHLORIDE]	> 46

Reference: the supplement of paper PMC3974653
